We go through six compounds from US20020035138A1, “Activating Cl- secretion” (Southern Research Institute, priority 1997, published 2002).

Data set [1] has as its system primary airway cells taken from a CF patient. Nature of the data set: Iodide efflux protocol in primary airway cells taken from a CF patient. The class given is cell-based, human. As to conditions: FIG. 2. How it is done: (§1) Epithelial cells in the pancreatic ducts, lung, and colon secrete fluid and electrolytes into the pancreatic ductular lumen, airways and intestinal lumen, respectively. The inability to secrete anions in response to a cAMP-dependent agonist such as forskolin is a hallmark of the CF phenotype. […] Methods: Iodide efflux. Iodide efflux was performed as previously described (Venglarik et al., Am. J. Physiol. 259:C358-C364, 1990, and Drumm et al., Cell 62:1227-1233, 1990) Cells were grown on […] culture dishes, and effluxes were performed when the cells were 80-100% confluent using a phosphate buffered Ringer's solution. Cells were loaded with ^125I (2-5 μCi/ml) for 30 minutes and then washed with PBS to remove extracellular ^125I. Efflux was detected by measuring the radioactivity in the extracellular solution which was changed every 15 seconds. At specific points, compounds were added to the cells. Increases in the rate of efflux after addition of a compound indicates the activation of an anion permeability pathway.

Data set [2] concerns CFPAC cells. Nature of the data set: Iodide efflux protocol in CFPAC cells. The class given is cell-based, human. As to conditions: for iodide (anion) efflux: CF pancreatic ductular cells (CFPAC), FIG. 1.
Excerpt: (§2) The iodide efflux protocol is a conventional test for the existence of anion permeability pathways, including both CFTR (cAMP-activated) and non-CFTR permeability pathways (e.g., Ca^2+-activated Cl^− transport). […] Ionomycin, a Ca^2+ ionophore, is known to activate non-CFTR-type anion efflux pathways in CFPAC cells by increasing intracellular Ca^2+.
as §1

For another data set, the system named is T84 cells. Briefly: Iodide efflux protocol in T84 colonic epithelial cells. The class given is cell-based, human. As to conditions: T84 cells expressing high levels of CFTR.
Excerpt: as §2, §1

Data set [3] concerns CFPAC cells. Briefly: Cell proliferation assay (Cell titer 96 kit). The class given is cell-based, human. How it is done: (§3) Proliferation was measured as in Hughes et al., Tumor specific killing with high bystander toxicity using the human tyrosinase promoter to express the E. coli PNP gene, Cancer Research 55: 3339-3345, 1995 and Parker et al., In vivo gene therapy of cancer with E. coli purine nucleoside phosphorylase, Human Gene Therapy, 1997 (in press) using a commercially available kit (Cell titer 96 kit, Promega) and carried out according to manufacturer's protocol. 20 μm 2931 activates Cl^− secretion in CF cells within 5 minutes. […] (FIG. 3A) cAMP levels were tested using the cAMP Immunoassay kit (Cayman) according to manufacturer's protocol.

In data set [4] the test system is T84 colonic epithelial cells. Briefly: Short circuit current (ISC) in T84 colonic epithelial cell monolayers. The class given is cell-based, human. The conditions noted are these: with 10 μM forskolin. How it is done:
(§4) FIG 4. Cl^- secretion in CFPAC-1 cells. CFPAC-1 cell monolayers were grown to confluency on permeable supports (Millipore) for 10 days. Filters were mounted in an Ussing chamber, and short circuit current measurement was carried out as previously described ([…] and Dawson, Am. J. Physiol. 251:[…]-[…], 1986). Filters were bathed in Ringer's solution (in mM: 145 Na^+, 5 K^+, 124.8 Cl^-, 1.2 Ca^2+, 1.2 Mg^2+, 25 HCO3-, 4.2 PO4, 10 glucose; pH=7.4) on the serosal surface and in a 6 mM Cl^- Ringer's solution (118.8 mM of Cl^- was replaced by the impermeant anion gluconate) on the mucosal surface. The compounds were screened using different concentrations of drugs and adding them to alternate surfaces of the filters (mucosal; serosal; mucosal and serosal). The effects of forskolin (10 μM), UTP (100 μM) CPX (100 μm) and duramycin (5 μm) were also studied. […] Explants of CF nasal polyps (primary airway epithelial cells) and control, non-CF colonic epithelial cells (T84) containing wild-type CFTR were also studied. […] In other words, these experiments raise the possibility that Cl^- secretion effects of drugs such as adenosine, milrinone, IBMX, or forskolin might be increased by compounds employed in the present invention by a conjoint therapy treatment. […] The ISC occurs after mucosal, but not serosal addition of the compound.

The next data set concerns CFPAC-1 cell monolayers. Briefly: Short circuit current (ISC) in CFPAC-1 cell monolayers, Ussing chamber. The class given is cell-based, human. The method, then:
as §4, with “Filters were bathed in Ringer's solution (in mM: 145 Na^+, 5 K^+, 124.8 Cl^-, 1.2 Ca^2+, 1.2 Mg^2+, 25 HCO3-, 4.2 PO4, 10 glucose; pH=7.4) on the serosal surface and in a 6 mM Cl^- Ringer's solution (118.8 mM of Cl^- was replaced by the impermeant anion gluconate) on the mucosal surface.” left out

The subject of a further data set is mouse intestine. Briefly: ISC across mouse intestine (colon sections) in Ussing chambers. How it is done: Small sections of mouse colon from both wild-type and CF knockout mice were mounted in Ussing chambers, and ISC measurements were recorded as described above. Both mucosal and serosal surfaces were bathed in regular Ringer's solution, and TTX (1.54×10^−3 μM) was added to the serosal side of the tissue. After a steady-state had been obtained, amiloride (10^−4 M) was added to the mucosal surface. Both sides were then bathed with regular Ringer's. A Cl gradient was established by bathing the mucosal surface with a 6 mM Cl^− solution. 5-diazoimidazol-4-carboxylic acid n-octyl ester (100 μM) was added first to the mucosal and then the serosal surface of the mounted tissue (FIG. 9).

Another data set has as its system cellular cAMP. Nature of the data set: cAMP Immunoassay kit, cellular cAMP levels. The class given is cell-based, human. The conditions noted are these: same conditions that stimulate anion transport, FIG. 3. How it is done:
as §3
On the technique in general: cAMP levels reflect the balance of adenylyl cyclase and phosphodiesterase activity.

The test system of the next data set is CF tissues. The conditions noted are these: including transepithelial transport in vivo; cited from earlier work.
A further data set concerns the target T1, ΔF508 CFTR (Homo sapiens, UniProt P13569, DEL508-508).
T1 construct: host or cells: CFPAC and IB3-1 (endogenous mutant CFTR); NIH 3T3 (after expression of the ΔF508 protein)
As to conditions: cited from earlier work.

The mark [5] stands for this setting: 100 μM, serosal-mucosal Cl- gradient.

Entries after “also recorded” stand apart in the source; their conditions may differ. Where two headings read alike, the source gives them in different places.

T1 sequence (P13569 with tags, fused parts or gaps DEL508-508): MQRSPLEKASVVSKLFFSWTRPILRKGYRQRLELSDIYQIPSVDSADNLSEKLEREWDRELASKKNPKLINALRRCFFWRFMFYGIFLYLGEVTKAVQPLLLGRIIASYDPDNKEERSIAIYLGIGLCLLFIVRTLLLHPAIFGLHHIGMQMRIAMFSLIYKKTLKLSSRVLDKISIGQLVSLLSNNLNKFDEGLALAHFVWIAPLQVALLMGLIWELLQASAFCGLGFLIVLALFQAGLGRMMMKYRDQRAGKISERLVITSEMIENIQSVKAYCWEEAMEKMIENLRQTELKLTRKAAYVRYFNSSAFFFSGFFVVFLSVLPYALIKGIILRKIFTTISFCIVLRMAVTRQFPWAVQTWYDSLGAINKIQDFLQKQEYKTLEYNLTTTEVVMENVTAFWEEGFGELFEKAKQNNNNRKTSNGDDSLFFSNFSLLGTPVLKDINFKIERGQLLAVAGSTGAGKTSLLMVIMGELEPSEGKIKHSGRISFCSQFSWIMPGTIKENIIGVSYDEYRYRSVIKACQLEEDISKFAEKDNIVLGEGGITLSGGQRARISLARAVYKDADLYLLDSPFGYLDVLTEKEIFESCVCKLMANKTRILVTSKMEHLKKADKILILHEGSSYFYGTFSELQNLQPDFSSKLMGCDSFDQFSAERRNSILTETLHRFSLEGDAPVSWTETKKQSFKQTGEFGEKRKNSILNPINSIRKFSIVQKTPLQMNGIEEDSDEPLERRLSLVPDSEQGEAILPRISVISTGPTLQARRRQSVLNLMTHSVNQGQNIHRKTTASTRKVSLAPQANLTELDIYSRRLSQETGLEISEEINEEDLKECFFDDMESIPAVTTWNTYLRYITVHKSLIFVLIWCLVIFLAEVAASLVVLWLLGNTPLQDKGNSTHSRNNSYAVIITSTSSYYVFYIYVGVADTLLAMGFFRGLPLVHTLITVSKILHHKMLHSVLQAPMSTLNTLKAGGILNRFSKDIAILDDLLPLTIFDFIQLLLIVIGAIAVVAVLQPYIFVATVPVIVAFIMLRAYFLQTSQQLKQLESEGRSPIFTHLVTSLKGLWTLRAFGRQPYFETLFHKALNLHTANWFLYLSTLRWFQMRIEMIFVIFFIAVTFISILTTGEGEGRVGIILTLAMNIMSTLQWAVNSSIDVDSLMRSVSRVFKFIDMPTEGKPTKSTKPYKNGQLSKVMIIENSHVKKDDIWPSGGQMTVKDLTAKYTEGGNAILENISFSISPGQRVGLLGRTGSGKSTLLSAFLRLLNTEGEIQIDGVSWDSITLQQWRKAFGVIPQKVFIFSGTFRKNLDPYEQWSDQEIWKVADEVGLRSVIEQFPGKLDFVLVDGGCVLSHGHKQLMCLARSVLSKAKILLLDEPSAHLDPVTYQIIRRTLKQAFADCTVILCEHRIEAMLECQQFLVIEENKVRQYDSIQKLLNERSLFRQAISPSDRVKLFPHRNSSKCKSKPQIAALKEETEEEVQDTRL

Regarding `CCCCCCCCOC(=O)C1=NC=NC1=[N+]=[N-]` [5-diazoimidazol-4-carboxylic acid n-octyl ester], the entries for the “iodide (anion) efflux” value (in data set [1]; in the data set with CFPAC cells [2]; in the data set with T84 cells) were “strongly activated”, “confers a rapid efflux of iodide; also recorded: strongly activated” and “strongly activated”, respectively. Further, in the data set on CFPAC cells [2] (20 μm, CF cells), the “time to activation of Cl- secretion” value is ≤ 5 min. Moreover, the “anion efflux after removal of extracellular Ca2+” value with CFPAC cells [2] (extracellular Ca2+ removed) is reported as “does not substantially inhibit anion efflux”. In addition, the proliferation of cells result with CFPAC cells [3] (at concentrations that activate anion efflux, FIG. 3A) was “allows proliferation of cells”. For the same compound, in the data set with CFPAC cells [3] (cells grown for 7 days at 20 μm), the “effects on cellular proliferation” value is “minimal effects on cellular proliferation”. The “ISC on top of maximal forskolin activation” value in data set [4] was “augmented the maximal ISC activation”. In addition, the “induced ISC in presence of BAPTA AM” value in the data set with CFPAC-1 cell monolayers (BAPTA AM 100 μM, FIG. 7) is reported as “had no effect”. For the same compound, the “potency and duration of effects relative to UTP and CPX” value with CFPAC-1 cell monolayers (CFPAC cells) was “more potent and prolonged effects”. Moreover, in the data set with CFPAC-1 cell monolayers (Cl- gradient reversed (mucosal-to-serosal)), the “direction of ISC” value is on record as “could be reversed”. In addition, the ISC response entry in the data set with CFPAC-1 cell monolayers (Cl- omitted from mucosal and serosal bathing solutions) is “much less pronounced”; in the data set with CFPAC-1 cell monolayers (added to apical (mucosal) surface, serosal-to-mucosal Cl- gradient), “strong ISC response”; with CFPAC-1 cell monolayers (added to basolateral (serosal) surface), “not basolateral”. Besides, the “ISC effect in presence of acetazolimide” value with CFPAC-1 cell monolayers (acetazolimide 100 μM) is given as “did not inhibit the effect”. In addition, the “ISC response in presence of amiloride” value with CFPAC-1 cell monolayers (amiloride 10 μM on apical surface) was “did not alter this response”. Also, the duration of activity result with CFPAC-1 cell monolayers (compared with UTP, CPX or duramycin, same conditions, FIG. 8) is “of longer duration than other drugs”. Further, in the data set with CFPAC-1 cell monolayers (symmetrical Ringer's lactate), the “ISC activation without imposed gradient” value is “still present”. The “induced ISC in presence of thapsagargin” value in the data set with CFPAC-1 cell monolayers (thapsagargin 0.1 μM, FIG. 7) is listed as “had no effect”. Moreover, the ISC activation result in the data set on mouse intestine (CFTR knock out (−/−) mice, data not shown) is reported as “ISC activation is also observed”; in the data set with mouse intestine (normal mice, 100 μM, mucosal surface) it was “activates ISC”; in the data set on mouse intestine (ΔF508 CFTR transgenic mice, 100 μM, mucosal surface) it was “activates ISC”. The “cellular cAMP” value with cellular cAMP is reported as “does not increase cellular cAMP”.

As to `Nc1ncnc2c1ncn2[C@@H]1O[C@H](COP(=O)(O)OP(=O)(O)OP(=O)(O)O)[C@@H](O)[C@H]1O` [ATP, adenosine triphosphate], the Cl- secretion result in the data set on CF tissues was “shown to activate”.

In the case of `O=c1ccn([C@@H]2O[C@H](COP(=O)(O)OP(=O)(O)OP(=O)(O)O)[C@@H](O)[C@H]2O)c(=O)[nH]1` [UTP, uridine triphosphate, reference compound], the Cl- secretion entry in the data set on CF tissues is listed as “shown to activate”. In addition, the “ISC / transepithelial Cl- secretion” value in the data set with CFPAC-1 cell monolayers (setting [5]) is listed as “small, transient activation; also recorded: smaller, transient effect”.

Take `CCCn1c(=O)c2[nH]c(C3CCCC3)nc2n(CCC)c1=O` [CPX, reference compound]: the Cl- efflux result on ΔF508 CFTR (NIH 3T3 cells after expression of the ΔF508 protein), on ΔF508 CFTR (airway cells derived from a CF patient (IB3-1-cell line)) and at ΔF508 CFTR (human CF pancreatic cells (CFPAC-cell line)) was “could be activated” throughout. For the same compound, the “ISC / transepithelial Cl- secretion” value in the data set with CFPAC-1 cell monolayers (setting [5]) is “did not suggest strong Cl^− secretion; also recorded: do not mediate Cl^− secretion”. In addition, in the data set with CFPAC-1 cell monolayers (setting [5]), the “direction of predominant ISC” value is reported as “opposite to that expected”.

`C[C@H](CCC(=O)O)C[C@H](C)C[C@H](C)C(=O)/C=C(\O)[C@H](C)C[C@H](C)C/C=C/[C@@H](C)[C@@H](O)[C@@H](C)[C@@H](O)C[C@@H]1CC[C@@](C)([C@H]2CC[C@@](C)([C@@H](C)O)O2)O1` [Ionomycin, reference compound]: the “iodide (anion) efflux” value with CFPAC cells [2] is “anticipated stimulation of iodide efflux”.

For duramycin [reference compound], in the data set on CFPAC-1 cell monolayers (5 μm), the “ISC / transepithelial Cl- secretion” value is “stronger, although transient, activation”.
